Results from ChEMBL document CHEMBL5625261, “Cytotoxic effects of kinetin riboside and its selected analogues on cancer cell lines” (Bioorg Med Chem Lett, 2024).

What was measured:
MCF7 [1] = assay: Cytotoxicity against human MCF7 cells assessed as reduction in cell viability incubated for 48 hrs by MTT assay; assay type: functional, cell-based; conditions: MCF7, 48 h
CCRF-CEM = assay: Antiproliferative activity against human CEM cells assessed as cell growth inhibition incubated for 72 hrs by Calcein AM staining based fluorescence assay; assay type: functional
OVCAR-3 [2] = assay: Cytotoxicity against human OVCAR-3 cells assessed as reduction in cell viability incubated for 24 hrs by MTT assay; assay type: functional, cell-based; conditions: OVCAR-3, 24 h
HT-29 = assay: Antiproliferative activity against human HT-29 cells assessed as cell growth inhibition incubated for 72 hrs by Beckman Coulter counting method; assay type: functional, cell-based; conditions: HT-29, 72 h
MIA PaCa-2 [3] = assay: Cytotoxicity against human MIA PaCa-2 cells assessed as reduction in cell viability incubated for 72 hrs by MTT assay; assay type: functional, cell-based; conditions: MIA PaCa-2, 72 h
[4] = Antiproliferative activity against human PZ-HPV-7 cells assessed as reduction in cell viability incubated for 48 to 96 hrs by crystal violet staining assay; assay type: toxicity, cell-based; conditions: time 48-96 hrs
G-361 = assay: Antiproliferative activity against human G361 cells assessed as cell growth inhibition incubated for 72 hrs by Beckman Coulter counting method; assay type: functional, cell-based; conditions: G-361, 72 h
[5] = Antiproliferative activity against human HEK cells assessed as cell growth inhibition incubated for 72 hrs by Beckman Coulter counting method; assay type: toxicity, cell-based
HL-60 [6] = assay: Cytotoxicity against human HL-60 cells assessed as inhibition of cell growth incubated for 5 days; assay type: functional, cell-based; conditions: HL-60, 120 h
Caco-2 [7] = assay: Cytotoxicity against human Caco-2 cells assessed as reduction in cell viability incubated for 48 hrs by MTT assay; assay type: functional, cell-based; conditions: Caco-2, 48 h
M4Beu cell line = assay: Cytotoxicity against human M4Beu cell line assessed as inhibition of cell growth incubated for 14 days by crystal violet staining based assay; assay type: functional; conditions: 336 h
[8] = Cytotoxicity against human MRC5 cells assessed as reduction in cell viability incubated for 48 hrs by MTT assay; assay type: toxicity, cell-based
HeLa [9] = assay: Cytotoxicity against human HeLa cells assessed as reduction in cell viability at 100 uM incubated for 24 hrs by MTT assay relative to control; assay type: functional
HeLa [10] = assay: Cytotoxicity against human HeLa cells assessed as reduction in cell viability incubated for 24 hrs by MTT assay; assay type: functional, cell-based
HeLa [11] = assay: Cytotoxicity against human HeLa cells assessed as reduction in cell viability incubated for 48 hrs by MTT assay; assay type: functional, cell-based
MIA PaCa-2 [12] = assay: Antiproliferative activity against human MIA PaCa-2 cells assessed as cell growth inhibition incubated for 72 hrs by Beckman Coulter counting method; assay type: functional, cell-based; conditions: MIA PaCa-2, 72 h
A-375 = assay: Antiproliferative activity against human A-375 cells assessed as cell growth inhibition incubated for 72 hrs by Beckman Coulter counting method; assay type: functional, cell-based; conditions: A-375, 72 h
Caco-2 [13] = assay: Cytotoxicity against human Caco-2 cells assessed as reduction in cell viability incubated for 72 hrs by MTT assay; assay type: functional, cell-based; conditions: Caco-2, 72 h
B16 = assay: Cytotoxicity against mouse B16 cells assessed as inhibition of cell growth incubated for 10 days by crystal violet staining based assay; assay type: functional; conditions: B16, 240 h
HeLa [14] = assay: Cytotoxicity against human HeLa cells assessed as reduction in cell viability incubated for 72 hrs by MTT assay; assay type: functional, cell-based
MCF7 [15] = assay: Cytotoxicity against human MCF7 cells assessed as reduction in cell viability at 100 uM incubated for 24 hrs by MTT assay relative to control; assay type: functional
MCF7 [16] = assay: Cytotoxicity against human MCF7 cells assessed as reduction in cell viability incubated for 72 hrs by MTT assay; assay type: functional, cell-based; conditions: MCF7, 72 h
MRC5 = assay: Cytotoxicity against human MRC5 cells assessed as reduction in cell viability at 100 uM incubated for 24 hrs by MTT assay relative to control; assay type: toxicity, cell-based; conditions: mrc5, 24 h
OVCAR-3 [17] = assay: Cytotoxicity against human OVCAR-3 cells assessed as reduction in cell viability incubated for 48 hrs by MTT assay; assay type: functional, cell-based; conditions: OVCAR-3, 48 h
HCT-15 = assay: Antiproliferative activity against human HCT-15 cells assessed as cell growth inhibition incubated for 4 days by SRB assay; assay type: functional, cell-based; conditions: HCT-15, 96 h
[18] = Cytotoxicity against human MRC5 cells assessed as reduction in cell viability incubated for 24 hrs by MTT assay; assay type: toxicity, cell-based
MIA PaCa-2 [19] = assay: Cytotoxicity against human MIA PaCa-2 cells assessed as reduction in cell viability incubated for 24 hrs by MTT assay; assay type: functional, cell-based; conditions: MIA PaCa-2, 24 h
[20] = Antiproliferative activity against human HS27 cells assessed as cell growth inhibition incubated for 72 hrs by Beckman Coulter counting method; assay type: toxicity, cell-based
MCF7 [21] = assay: Cytotoxicity against human MCF7 cells assessed as reduction in cell viability incubated for 24 hrs by MTT assay; assay type: functional, cell-based; conditions: MCF7, 24 h
DU-145 = assay: Antiproliferative activity against human DU-145 cells assessed as reduction in cell viability incubated for 48 to 96 hrs by crystal violet staining assay; assay type: functional; conditions: time 48-96 hrs
HL-60 [22] = assay: Antiproliferative activity against human HL-60 cells assessed as cell growth inhibition incubated for 72 hrs by Calcein AM staining based fluorescence assay; assay type: functional; conditions: HL-60, 72 h
LOX IMVI = assay: Antiproliferative activity against human LOX IMVI cells assessed as cell growth inhibition incubated for 72 hrs by Beckman Coulter counting method; assay type: functional, cell-based
[23] = Cytotoxicity against human MRC5 cells assessed as reduction in cell viability incubated for 72 hrs by MTT assay; assay type: toxicity, cell-based
Caco-2 [24] = assay: Cytotoxicity against human Caco-2 cells assessed as reduction in cell viability incubated for 24 hrs by MTT assay; assay type: functional, cell-based; conditions: Caco-2, 24 h
A549 = assay: Antiproliferative activity against human A549 cells assessed as cell growth inhibition incubated for 48 hrs by MTT assay; assay type: functional, cell-based; conditions: A549, 48 h
MCF7 [25] = assay: Antiproliferative activity against human MCF7 cells assessed as cell growth inhibition incubated for 72 hrs by Calcein AM staining based fluorescence assay; assay type: functional; conditions: MCF7, 72 h
HeLa [26] = assay: Antiproliferative activity against human HeLa cells assessed as cell growth inhibition incubated for 72 hrs by Calcein AM staining based fluorescence assay; assay type: functional
HCT-116 = assay: Antiproliferative activity against human HCT-116 cells assessed as cell growth inhibition incubated for 72 hrs by Beckman Coulter counting method; assay type: functional, cell-based; conditions: HCT-116, 72 h
MIA PaCa-2 [27] = assay: Cytotoxicity against human MIA PaCa-2 cells assessed as reduction in cell viability incubated for 48 hrs by MTT assay; assay type: functional, cell-based; conditions: MIA PaCa-2, 48 h
OVCAR-3 [28] = assay: Cytotoxicity against human OVCAR-3 cells assessed as reduction in cell viability incubated for 72 hrs by MTT assay; assay type: functional, cell-based; conditions: OVCAR-3, 72 h
MIA PaCa-2 [29] = assay: Cytotoxicity against human MIA PaCa-2 cells assessed as reduction in cell viability at 100 uM incubated for 24 hrs by MTT assay relative to control; assay type: functional
MIA PaCa-2 [30] = assay: Cytotoxicity against human MIA PaCa-2 cells assessed as reduction in cell viability at 100 uM incubated for 72 hrs by MTT assay relative to control; assay type: functional

OC[C@H]1O[C@@H](n2cnc3c(NCc4ccco4)ncnc32)[C@H](O)[C@@H]1O [KINETIN RIBOSIDE]
IC50 (MCF7 [1]): 2.8 µM
IC50 (CCRF-CEM): 1.6 µM
IC50 (OVCAR-3 [2]): > 100 µM
IC50 (HT-29): 0.16 µM
IC50 (MIA PaCa-2 [3]): 2.6 µM
Activity [4]: 85%
IC50 (G-361): 0.16 µM
IC50 at 72 h [5]: 0.11 µM
IC50 (HL-60 [6]): 0.98 µM
IC50 (Caco-2 [7]): 42 µM
IC50 (M4Beu cell line): 1.5 µM
IC50 at 48 h [8]: 2.5 µM
Activity (HeLa [9]): ~30%
IC50 (HeLa [10]): > 100 µM
IC50 (HeLa [11]): > 100 µM
IC50 (MIA PaCa-2 [12]): 0.16 µM
IC50 (A-375): 0.16 µM
IC50 (Caco-2 [13]): 23.5 µM
IC50 (B16): 0.2 µM
IC50 (HeLa [14]): > 100 µM
Activity (MCF7 [15]): ~80%
IC50 (MCF7 [16]): 2.7 µM
Activity (MRC5): ~ 80%
IC50 (OVCAR-3 [17]): 7.8 µM
IC50 (HCT-15): 12.3 µM
IC50 at 24 h [18]: 18 µM
IC50 (MIA PaCa-2 [19]): > 100 µM
IC50 at 72 h [20]: 0.18 µM
IC50 (MCF7 [21]): 16.1 µM
Activity (DU-145): 35%
IC50 (HL-60 [22]): 0.8 µM
IC50 (LOX IMVI): 0.16 µM
IC50 at 72 h [23]: 1.7 µM
IC50 (Caco-2 [24]): 88 µM
IC50 (A549): 10.5 µM
IC50 (MCF7 [25]): 4.3 µM
IC50 (HeLa [26]): 4.3 µM
IC50 (HCT-116): 0.16 µM
IC50 (MIA PaCa-2 [27]): 3.1 µM
IC50 (OVCAR-3 [28]): 3.1 µM

Nc1nc(NCc2ccco2)c2ncn([C@@H]3O[C@H](CO)[C@@H](O)[C@H]3O)c2n1
IC50 (MCF7 [1]): > 100 µM
IC50 (OVCAR-3 [2]): > 100 µM
IC50 (MIA PaCa-2 [3]): > 100 µM
IC50 (Caco-2 [7]): > 100 µM
IC50 at 48 h [8]: > 100 µM
IC50 (HeLa [10]): > 100 µM
IC50 (HeLa [11]): > 100 µM
IC50 (Caco-2 [13]): > 100 µM
IC50 (HeLa [14]): > 100 µM
IC50 (MCF7 [16]): > 100 µM
IC50 (OVCAR-3 [17]): > 100 µM
IC50 at 24 h [18]: > 100 µM
IC50 (MIA PaCa-2 [19]): > 100 µM
IC50 (MCF7 [21]): > 100 µM
IC50 at 72 h [23]: > 100 µM
IC50 (Caco-2 [24]): > 100 µM
IC50 (MIA PaCa-2 [27]): > 100 µM
IC50 (OVCAR-3 [28]): > 100 µM

OC[C@H]1O[C@@H](n2cnc3c(NCc4ccoc4)ncnc32)[C@H](O)[C@@H]1O
IC50 (MCF7 [1]): 2.2 µM
IC50 (OVCAR-3 [2]): > 100 µM
IC50 (MIA PaCa-2 [3]): 1.1 µM
Activity (MIA PaCa-2 [29]): 40%
IC50 (Caco-2 [7]): 13.1 µM
IC50 at 48 h [8]: 1 µM
IC50 (HeLa [10]): > 100 µM
IC50 (HeLa [11]): > 100 µM
IC50 (Caco-2 [13]): 6.5 µM
IC50 (HeLa [14]): > 100 µM
IC50 (MCF7 [16]): 2.1 µM
IC50 (OVCAR-3 [17]): 3.3 µM
Activity (MIA PaCa-2 [30]): ~90%
IC50 at 24 h [18]: 16 µM
IC50 (MIA PaCa-2 [19]): > 100 µM
IC50 (MCF7 [21]): 12 µM
IC50 at 72 h [23]: 0.7 µM
IC50 (Caco-2 [24]): 18.5 µM
IC50 (MIA PaCa-2 [27]): 1.4 µM
IC50 (OVCAR-3 [28]): 1.8 µM

OC[C@H]1O[C@@H](n2nnc3c(NCc4ccco4)ncnc32)[C@H](O)[C@@H]1O
IC50 (MCF7 [1]): 4.3 µM
IC50 (OVCAR-3 [2]): > 100 µM
IC50 (MIA PaCa-2 [3]): 1.1 µM
IC50 (Caco-2 [7]): 18.7 µM
IC50 at 48 h [8]: 11.7 µM
IC50 (HeLa [10]): > 100 µM
IC50 (HeLa [11]): 14.5 µM
IC50 (Caco-2 [13]): 11.5 µM
IC50 (HeLa [14]): 4.6 µM
IC50 (MCF7 [16]): 3.8 µM
IC50 (OVCAR-3 [17]): 76 µM
IC50 at 24 h [18]: > 100 µM
IC50 (MIA PaCa-2 [19]): > 100 µM
IC50 (MCF7 [21]): 27 µM
IC50 at 72 h [23]: 4.6 µM
IC50 (Caco-2 [24]): 25 µM
IC50 (MIA PaCa-2 [27]): 2.8 µM
IC50 (OVCAR-3 [28]): 1.1 µM
